Measured values: the supplement of paper PMC10307832

Key:
Test in all cases: relative viability (nuclei count vs DMSO), 5 days (fraction); higher = more cells survive
Zosuquidar + Tozasertib = compound: O[C@@H](COc1cccc2ncccc12)CN1CCN([C@@H]2c3ccccc3[C@@H]3[C@H](c4ccccc42)C3(F)F)CC1 [Zosuquidar] + Cc1cc(Nc2cc(N3CCN(C)CC3)nc(Sc3ccc(NC(=O)C4CC4)cc3)n2)n[nH]1 [Tozasertib] (partner 0.1 µM)
In short: (§1)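 Values are medians from duplicate plates. Each reflects relative viability, defined as the nuclei count of treated wells over that of vehicle wells. Lung cancer cell lines in 1536-well plates were pin-tool dosed one day after seeding with one drug alone or with a fixed anchor-drug dose plus five library-drug doses (not always all listed) in √10 steps, then fixed, stained and imaged at 4× after 5 days.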

Cabozantinib + Lapatinib = compound: COc1cc2nccc(Oc3ccc(NC(=O)C4(C(=O)Nc5ccc(F)cc5)CC4)cc3)c2cc1OC [Cabozantinib] + CS(=O)(=O)CCNCc1ccc(-c2ccc3ncnc(Nc4ccc(OCc5cccc(F)c5)c(Cl)c4)c3c2)o1 [Lapatinib] (partner 2 µM)
In short: as §1

Zosuquidar + Linsitinib = compound: O[C@@H](COc1cccc2ncccc12)CN1CCN([C@@H]2c3ccccc3[C@@H]3[C@H](c4ccccc42)C3(F)F)CC1 [Zosuquidar] + C[C@]1(O)C[C@@H](c2nc(-c3ccc4ccc(-c5ccccc5)nc4c3)c3c(N)nccn32)C1 [Linsitinib] (partner 1 µM)
In short: as §1

Kobe2602 + Crizotinib = compound: C1=CC(=CC=C1NC(=S)NNC2=C(C=C(C=C2[N+](=O)[O-])C(F)(F)F)[N+](=O)[O-])F [Kobe2602] + C[C@@H](Oc1cc(-c2cnn(C3CCNCC3)c2)cnc1N)c1c(Cl)ccc(F)c1Cl [Crizotinib] (partner 1 µM)
In short: as §1

Cell Line	relative viability (Zosuquidar + Tozasertib; first compound 0.01 µM)	relative viability (Zosuquidar + Tozasertib; first compound 0.03162 µM)	relative viability (Zosuquidar + Tozasertib; first compound 0.1 µM)	relative viability (Zosuquidar + Tozasertib; first compound 0.3162 µM)	relative viability (Zosuquidar + Tozasertib; first compound 1 µM)	relative viability (Cabozantinib + Lapatinib; first compound 0.02 µM)	relative viability (Cabozantinib + Lapatinib; first compound 0.06325 µM)	relative viability (Cabozantinib + Lapatinib; first compound 0.2 µM)	relative viability (Cabozantinib + Lapatinib; first compound 0.6325 µM)	relative viability (Cabozantinib + Lapatinib; first compound 2 µM)	relative viability (Zosuquidar + Linsitinib; first compound 0.01 µM)	relative viability (Zosuquidar + Linsitinib; first compound 0.03162 µM)	relative viability (Zosuquidar + Linsitinib; first compound 0.1 µM)	relative viability (Zosuquidar + Linsitinib; first compound 0.3162 µM)	relative viability (Zosuquidar + Linsitinib; first compound 1 µM)	relative viability (Kobe2602 + Crizotinib; first compound 0.2 µM)	relative viability (Kobe2602 + Crizotinib; first compound 0.6325 µM)	relative viability (Kobe2602 + Crizotinib; first compound 2 µM)	relative viability (Kobe2602 + Crizotinib; first compound 6.325 µM)	relative viability (Kobe2602 + Crizotinib; first compound 20 µM)
201T	0.876	0.907	0.888	0.993	0.854	1.02	1.14	0.991	0.999	1.08	1.06	1.01	0.892	0.961	1.01	1.07	1.02	1.04	1.02	1.1
A549	–	–	–	–	–	0.996	1.03	0.872	0.926	0.807	0.766	0.571	0.416	0.53	0.564	0.759	0.723	0.781	0.764	0.8
A-427	0.205	0.247	0.271	0.218	0.192	1.1	1.11	0.963	1.02	1.08	1.09	1.14	0.971	1.15	1.11	0.898	0.903	0.843	1	1.01
Calu-6	–	–	–	–	–	1.14	1.2	1.15	0.986	1.05	0.905	0.906	0.901	1.12	0.948	0.84	0.78	0.786	0.744	0.813
ChaGo-K-1	0.227	0.217	0.261	0.204	0.227	–	–	–	–	–	–	–	–	–	–	1.16	1.2	1.14	1.13	0.935
EBC-1	–	–	–	–	–	0.192	0.17	0.242	0.195	0.213	0.956	0.923	0.747	1.16	0.845	0.225	0.239	0.185	0.203	0.216
IA-LM	–	–	–	–	–	0.92	0.91	1.02	0.946	0.808	0.671	0.766	0.334	0.654	0.624	0.64	0.671	0.718	0.789	0.703
LCLC-103H	0.388	0.462	0.445	0.462	0.496	–	–	–	–	–	1.13	1.17	1.05	0.912	1.03	1.04	1.02	1.07	1.02	1.18
NCI-H441	0.475	0.723	0.819	0.709	0.609	–	–	–	–	–	0.505	0.594	0.498	–	0.478	0.719	0.662	0.606	0.876	0.713
NCI-H522	0.536	0.537	0.585	0.601	0.556	–	–	–	–	–	–	–	–	–	–	–	–	–	–	–
NCI-H1299	–	–	–	–	–	0.95	1.04	0.936	1.03	1.04	1.03	0.955	0.967	0.992	0.959	0.922	0.938	0.93	0.952	0.925
NCI-H1395	0.729	0.893	0.804	0.81	0.755	0.913	1.03	0.948	1.1	0.905	1.39	1.17	0.796	1.04	1.1	–	–	–	–	–
NCI-H1563	–	–	–	–	–	0.946	0.966	1.04	0.844	1.21	1.22	1.29	1.13	1.2	1.26	0.844	0.885	0.749	0.939	0.85
NCI-H1623	0.43	0.33	0.435	0.421	0.407	–	–	–	–	–	–	–	–	–	–	–	–	–	–	–
NCI-H1648	0.602	–	0.316	0.497	0.562	–	–	–	–	–	–	–	–	–	–	–	–	–	–	–
NCI-H1650	0.43	0.426	0.478	0.469	0.371	0.788	0.916	0.904	0.708	0.568	–	–	–	–	–	0.913	1.01	0.92	1.07	1.05
NCI-H1703	–	–	–	–	–	–	0.587	0.337	0.282	0.231	1.13	0.979	0.543	1.57	0.74	0.775	0.66	0.56	0.829	0.501
NCI-H1792	–	–	–	–	–	0.78	1.13	0.846	0.862	0.85	0.545	0.438	0.431	0.572	0.579	0.965	0.928	0.985	0.726	1.05
NCI-H1793	0.345	0.534	–	0.393	0.376	0.95	1.15	0.571	0.508	0.594	0.748	0.934	–	0.797	0.73	–	–	–	–	–
NCI-H2170	0.788	0.733	0.825	0.622	0.738	0.263	0.302	0.16	0.353	0.27	–	–	–	–	–	1.22	1.21	1.14	1.31	1.13
NCI-H2342	0.499	0.468	0.55	0.608	0.597	–	–	–	–	–	–	–	–	–	–	–	–	–	–	–
SW 900	0.581	0.583	0.573	0.665	0.473	–	–	–	–	–	–	–	–	–	–	–	–	–	–	–
